Data set [1] relates to Canis familiaris. In words: MESPM/MEHSPH Distribution in kidney was determined after DESPM dosing of 4 mg/kg/day for 13 days in dog(cu dose-52.4) and sacrificed at 10 days PLD(cu dose-52 mg/kg). The following applies: in vivo, 240 h. Type of data set: ADME, organism-based, Canis lupus familiaris.
Data set [2] concerns Canis familiaris. In words: Spermine Distribution in kidney was determined after DESPM dosing of 8.0 mg/kg/day for 4.5 days in dog(cu dose-52.4) and sacrificed at 10 days PLD(cu dose-36 mg/kg). Type of data set: ADME, organism-based, Canis lupus familiaris. The following applies: in vivo, 240 h.
Data set [3] concerns Canis familiaris. In words: MESPM/MEHSPH Distribution in liver was determined after DESPM dosing of 8.0 mg/kg/day for 4.5 days in dog(cu dose-52.4) and sacrificed at 75 days PLD(cu dose-36 mg/kg). Type of data set: ADME, organism-based, Canis lupus familiaris. The following applies: in vivo, 1800 h.
Data set [4] relates to Rattus norvegicus. In words: Weight loss of rat over the 6-h experimental period when a dose of 4.7 mg/kg (11.6 administered. Format: functional.
Data set [5] has as its system Canis familiaris. Kind of data set: Spermidine Distribution in kidney was determined after DESPM dosing of 8.0 mg/kg/day for 4.5 days in dog(cu dose-52.4) and sacrificed at 75 days PLD(cu dose-36 mg/kg). Type of data set: ADME, organism-based, Canis lupus familiaris. The following applies: in vivo, 1800 h.
A short description of data set [6]: The acute toxicity was determined in female CD1 mice after (ip) administration. Format: functional. The following applies: Mus musculus.
For data set [7], the system named is Canis familiaris. In words: Spermidine Distribution in kidney was determined after DESPM dosing of 4 mg/kg/day for 13 days in dog(cu dose-52.4) and sacrificed at 75 days PLD(cu dose-52 mg/kg). The following applies: in vivo, 1800 h. Type of data set: ADME, organism-based, Canis lupus familiaris.
The test system of data set [8] is Canis familiaris. In words: putrescine Distribution in liver was determined after DESPM dosing of 1.87 mg/kg/day for 28 days in dog(cu dose-52.4) and sacrificed at 75 days PLD(cu dose-52.4 mg/kg). Type of data set: ADME, organism-based, Canis lupus familiaris. The following applies: in vivo, 1800 h.
Data set [9] relates to Rattus norvegicus. Kind of data set: Weight loss of rat over the 6-h experimental period when a dose of 9.4 mg/kg (23.3 administered. Format: functional.
The test system of data set [10] is Canis familiaris. In words: Spermine Distribution in liver was determined after DESPM dosing of 6.0 mg/kg/day for 4.5 days in dog(cu dose-52.4) and sacrificed at 10 days PLD(cu dose-27 mg/kg). Type of data set: ADME, organism-based, Canis lupus familiaris. The following applies: in vivo, 240 h.
Data set [11] concerns Canis familiaris. In words: putrescine Distribution in kidney was determined after DESPM dosing of 6.0 mg/kg/day for 4.5 days in dog and sacrificed at 75 days PLD(cu dose-27 mg/kg). Format: ADME, organism-based, Canis lupus familiaris. The following applies: in vivo, 1800 h.
For data set [12], the system named is Rattus norvegicus. In words: Weight loss of rat over the 6-h experimental period when a dose of 14.3 mg/kg (35.4 administered. Type of data set: functional.
Data set [13] has as its system Canis familiaris. In words: Spermine Distribution in kidney was determined after DESPM dosing of 6.0 mg/kg/day for 4.5 days in dog(cu dose-52.4) and sacrificed at 75 days PLD(cu dose-27 mg/kg). Format: ADME, organism-based, Canis lupus familiaris. The following applies: in vivo, 1800 h.
Data set [14] has as its system Canis familiaris. In words: MESPM/MEHSPH Distribution in kidney was determined after DESPM dosing of 8.0 mg/kg/day for 4.5 days in dog(cu dose-52.4) and sacrificed at 10 days PLD(cu dose-36 mg/kg). Format: ADME, organism-based, Canis lupus familiaris. The following applies: in vivo, 240 h.
Data set [15] in a line: The chronic toxicity was determined in female CD1 mice after (ip) administration. Format: functional. The following applies: Mus musculus.
Data set [16] deals with Canis familiaris. In words: putrescine Distribution in kidney was determined after DESPM dosing of 8.0 mg/kg/day for 4.5 days in dog and sacrificed at 75 days PLD(cu dose-36 mg/kg). The following applies: in vivo, 1800 h. Type of data set: ADME, organism-based, Canis lupus familiaris.
The test system of data set [17] is Canis familiaris. Kind of data set: putrescine Distribution in kidney was determined after DESPM dosing of 6.0 mg/kg/day for 4.5 days in dog and sacrificed at 10 days PLD(cu dose-27 mg/kg). Type of data set: ADME, organism-based, Canis lupus familiaris. The following applies: in vivo, 240 h.
Data set [18] relates to Canis familiaris. Kind of data set: MESPM/MEHSPH Distribution in kidney was determined after DESPM dosing of 6.0 mg/kg/day for 4.5 days in dog(cu dose-52.4) and sacrificed at 75 days PLD(cu dose-27 mg/kg). Type of data set: ADME, organism-based, Canis lupus familiaris. The following applies: in vivo, 1800 h.
The subject of data set [19] is Canis familiaris. Kind of data set: Spermidine Distribution in liver was determined after DESPM dosing of 6.0 mg/kg/day for 4.5 days in dog(cu dose-52.4) and sacrificed at 75 days PLD(cu dose-27 mg/kg). Format: ADME, organism-based, Canis lupus familiaris. The following applies: in vivo, 1800 h.
The subject of data set [20] is Canis familiaris. Kind of data set: Spermidine Distribution in liver was determined after DESPM dosing of 8.0 mg/kg/day for 4.5 days in dog(cu dose-52.4) and sacrificed at 75 days PLD(cu dose-36 mg/kg). Format: ADME, organism-based, Canis lupus familiaris. The following applies: in vivo, 1800 h.
Data set [21] has as its system Canis familiaris. In words: Spermine Distribution in kidney was determined after DESPM dosing of 8.0 mg/kg/day for 4.5 days in dog(cu dose-52.4) and sacrificed at 75 days PLD(cu dose-36 mg/kg). Type of data set: ADME, organism-based, Canis lupus familiaris. The following applies: in vivo, 1800 h.
Data set [22] relates to Canis familiaris. Kind of data set: MESPM/MEHSPH Distribution in liver was determined after DESPM dosing of 1.87 mg/kg/day for 28 days in dog(cu dose-52.4) and sacrificed at 10 days PLD(cu dose-52.4 mg/kg). Format: ADME, organism-based, Canis lupus familiaris. The following applies: in vivo, 240 h.
Data set [23] deals with Canis familiaris. Kind of data set: Spermine Distribution in liver was determined after DESPM dosing of 1.87 mg/kg/day for 28 days in dog(cu dose-52.4) and sacrificed at 75 days PLD(cu dose-52.4 mg/kg). Format: ADME, organism-based, Canis lupus familiaris. The following applies: in vivo, 1800 h.
Data set [24] relates to Rattus norvegicus. Kind of data set: Percent reduction was determined by using the ratio of mean of treated animal to that of control animal at a dose of 94 mg/kg. Type of data set: functional.
The subject of data set [25] is Canis familiaris. In words: putrescine Distribution in liver was determined after DESPM dosing of 8.0 mg/kg/day for 4.5 days in dog(cu dose-52.4) and sacrificed at 10 days PLD(cu dose-36 mg/kg). Format: ADME, organism-based, Canis lupus familiaris. The following applies: in vivo, 240 h.
The subject of data set [26] is Canis familiaris. Kind of data set: Spermidine Distribution in kidney was determined after DEHSPM dosing of 2.0 mg/kg/day for 29 days in dog(cu dose-52.4) and sacrificed at 10 days PLD(cu dose-58 mg/kg). Format: ADME, organism-based, Canis lupus familiaris. The following applies: in vivo, 240 h.
Data set [27] deals with Canis familiaris. In words: HSPM Distribution in kidney was determined after DEHSPM dosing of 2.0 mg/kg/day for 29 days in dog(cu dose-52.4) and sacrificed at 10 days PLD(cu dose-58 mg/kg). The following applies: in vivo, 240 h. Type of data set: ADME, organism-based, Canis lupus familiaris.
The subject of data set [28] is Canis familiaris. In words: Spermidine Distribution in liver was determined after DEHSPM dosing of 2.0 mg/kg/day for 29 days in dog(cu dose-52.4) and sacrificed at 10 days PLD(cu dose-58 mg/kg). Type of data set: ADME, organism-based, Canis lupus familiaris. The following applies: in vivo, 240 h.
The test system of data set [29] is Canis familiaris. In words: Distribution in liver was determined after DEHSPM dosing of 2.0 mg/kg/day for 29 days in dog(cu dose-52.4) and sacrificed at 10 days PLD(cu dose-58 mg/kg). Format: ADME, organism-based, Canis lupus familiaris. The following applies: in vivo, 240 h.
For data set [30], the system named is Canis familiaris. Kind of data set: Distribution in kidney was determined after DESPM dosing of 6.0 mg/kg/day for 4.5 days in dog(cu dose-52.4) and sacrificed at 75 days PLD(cu dose-27 mg/kg). Type of data set: ADME, organism-based, Canis lupus familiaris. The following applies: in vivo, 1800 h.
The test system of data set [31] is Canis familiaris. In words: Distribution in liver was determined after DESPM dosing of 4 mg/kg/day for 13 days in dog(cu dose-52.4) and sacrificed at 10 days PLD(cu dose-52 mg/kg). The following applies: in vivo, 240 h. Type of data set: ADME, organism-based, Canis lupus familiaris.
The test system of data set [32] is Canis familiaris. In words: Distribution in kidney was determined after DEHSPM dosing of 2.0 mg/kg/day for 29 days in dog(cu dose-52.4) and sacrificed at 10 days PLD(cu dose-58 mg/kg). Type of data set: ADME, organism-based, Canis lupus familiaris. The following applies: in vivo, 240 h.
Data set [33] has as its system Canis familiaris. In words: Distribution in kidney was determined after DESPM dosing of 1.87 mg/kg/day for 28 days in dog(cu dose-52.4) and sacrificed at 10 days PLD(cu dose-52.4 mg/kg). Type of data set: ADME, organism-based, Canis lupus familiaris. The following applies: in vivo, 240 h.
For data set [34], the system named is Canis familiaris. Kind of data set: Spermine Distribution in kidney was determined after DEHSPM dosing of 2.0 mg/kg/day for 29 days in dog(cu dose-52.4) and sacrificed at 10 days PLD(cu dose-58 mg/kg). The following applies: in vivo, 240 h. Format: ADME, organism-based, Canis lupus familiaris.

One may read the LD50 as the dose at which mortality reaches 50%. Higher therefore signals a less toxic substance.

Regarding `CCNCCCNCCCCNCCCNCC` [BIS(ETHYL)SPERMINE], the “Wet weight of tissue” value was 7 nM/g in the data set on Canis familiaris [1]; 784 nM/g in the data set on Canis familiaris [2]; 0 nM/g in the data set with Canis familiaris [3]; 80 nM/g in the data set on Canis familiaris [5]; 117 nM/g in the data set with Canis familiaris [7]; 28 nM/g in the data set with Canis familiaris [8]. Moreover, the “Wet weight of tissue” value with Canis familiaris [10] was found to be 848 nM/g; in the data set on Canis familiaris [11], 8 nM/g; in the data set with Canis familiaris [13], 584 nM/g; in the data set on Canis familiaris [14] it was 12 nM/g; with Canis familiaris [16], 6 nM/g; with Canis familiaris [17], 7 nM/g. Also, the “Wet weight of tissue” value in the data set with Canis familiaris [18] stood at 0 nM/g; in the data set on Canis familiaris [19] it was 244 nM/g; in the data set with Canis familiaris [20], 221 nM/g; in the data set on Canis familiaris [21] it was 624 nM/g; with Canis familiaris [22], 7 nM/g; with Canis familiaris [23] it was 649 nM/g. In the data set on Canis familiaris [25], the “Wet weight of tissue” value was 109 nM/g. Moreover, the Weight loss is recorded as under 7.5 g with Rattus norvegicus [4], under 5.3 g with Rattus norvegicus [9] and under 4.4 g in the data set with Rattus norvegicus [12]. For the same compound, the LD50 worked out at 400 mg/kg in data set [6] and 80 mg/kg in data set [15]. The Reduction with Rattus norvegicus [24] is recorded as 81%.

In the case of `CCNCCCCNCCCCNCCCCNCC` [DIETHYLHOMOSPERMINE], the “Wet weight of tissue” value with Canis familiaris [26] was determined as 41 nM/g; with Canis familiaris [27], 269 nM/g; with Canis familiaris [28] it was 50 nM/g; with Canis familiaris [29] it was 80 nM/g; in the data set on Canis familiaris [30], 0 nM/g; in the data set on Canis familiaris [31], 36 nM/g. The results for the “Wet weight of tissue” value with Canis familiaris [32], in the data set with Canis familiaris [33] and in the data set with Canis familiaris [34] were 98 nM/g, 50 nM/g and 275 nM/g, respectively. Besides, the figures for the LD50 in data set [6] and in [15] were 300 mg/kg and 38 mg/kg, respectively.

Source of the values: ChEMBL document CHEMBL1134446, “Polyamine analogue antidiarrheals: a structure-activity study” (J Med Chem, 2001).
